According to patent US6706663B2, “Herbicidal 3-heterocyclic substituted benzisothiazole and benzisoxazole compounds” (Wyeth, priority 2000, dated 2004):

Legend:
GALAP (Galium aparine) [1] = test: Preemergence herbicidal evaluation; type: in vivo; settings: preemergence, rated 4-5 weeks after treatment
Procedure, shortened: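 Visual 0-9 rating versus untreated control, taken four to five weeks post-treatment, scoring stand, vigor, malformation, size, chlorosis and overall appearance. Compound applied as aqueous acetone spray to freshly seeded soil cups, then kept under standard greenhouse care.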

[2] = test system: ECHORC (Echinochloa oryzoides); test: Flooded paddy, preemergence weed control; type: in vivo, Echinochloa oryzoides (Ard.) Fritsch.; settings: rated 3-4 weeks after treatment, 0-9 rating scale
Procedure, shortened: (§1)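 Seeds or propagules were planted in the top 0.5 cm of silt loam soil and kept flooded 1.5–3 cm above the surface throughout, then held in the greenhouse. Injury was rated visually on a 0–9 scale against untreated controls, covering stand, vigor, malformation, size and chlorosis.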

ZEAMX (Corn, Field) = test: Postemergence herbicidal evaluation; type: in vivo, Zea mays, L.
Procedure, shortened: (§2)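 Visual 0–9 injury scores versus control plants, covering stand, vigour, malformation, size, chlorosis and general appearance, taken four to five weeks post-spray and averaged over replicate tests. Plants were sprayed at roughly two weeks old and held on greenhouse benches.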

[3] = test system: SAGPY (Sagittaria pygmaea); test: Flooded paddy, preemergence weed control; type: in vivo, L.; settings: rated 3-4 weeks after treatment, 0-9 rating scale
Procedure, shortened: as §1

[4] = test system: CYPSE (Cyperus serotinus); test: Flooded paddy, postemergence weed control; type: in vivo, Rottb.; settings: postemergence weeds, rated 3-4 weeks after treatment
From the text: (§3) Results of herbicide evaluation are expressed on a rating scale (0-9). The scale is based upon a visual observation of plant stand, vigor, malformation, size, chlorosis and overall plant appearance as compared with a control.
(§4) Plastic containers containing weeds which are 3 to 5 cm tall and rice seedlings at the 1.5 to 2.5 leaf stage are flooded with water. The water is maintained at 1.5 to 3 cm above the soil surface for the duration of the experiment. Test compounds are applied as aqueous/acetone mixtures 50/50 v/v directly into the flood water to provide the equivalent of about 0.0320 to 0.2500 kg/ha of active ingredient. The treated containers are placed on greenhouse benches and cared for in accordance with conventional greenhouse procedures. Three to four weeks after treatment, the test is terminated and each container is examined and herbicidal effect rated according to the rating system provided in Example 87. The compounds evaluated are identified in Example 87 and plant species used are identified in Example 89.

[5] = test system: TRZAWR (Wheat, Winter, cv Riband); test: Postemergence herbicidal evaluation; type: in vivo, Triticum aestivum
Procedure, shortened: as §2

[6] = test system: CYPSE (Cyperus serotinus); test: Flooded paddy, preemergence weed control; type: in vivo, Rottb.; settings: rated 3-4 weeks after treatment, 0-9 rating scale
Procedure, shortened: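 Herbicidal effect was scored visually on a 0–9 scale against an untreated control 3–4 weeks after treatment. Compounds were applied preemergence as 50/50 v/v aqueous/acetone mixtures into flood water (1.5–3 cm deep over silt loam), at roughly 0.0080 to 0.1250 kg/ha active ingredient.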

ORYSAT (Rice, Tebonnet) [7] = test: Preemergence herbicidal evaluation; type: in vivo, Oryza sativa, (L.) Tebonnet; settings: preemergence, rated 4-5 weeks after treatment
[8] = test system: ECHCG (Echinochloa crus-galli); test: Postemergence herbicidal evaluation; type: in vivo, (L.) Beau
Procedure, shortened: as §2

[9] = test system: MOOVA (Monochoria vaginalis); test: Flooded paddy, postemergence weed control; type: in vivo, Presl.; settings: postemergence weeds, rated 3-4 weeks after treatment
From the text: as §3, §4

ORYSAT (Rice, Tebonnet) [10] = test: Flooded paddy, post-transplant and postemergence rice tolerance; type: in vivo, Oryza sativa, (L.) Tebonnet; settings: post-transplant rice, rated 3-4 weeks after treatment
From the text: as §3, §4

[11] = test system: SAGPY (Sagittaria pygmaea); test: Flooded paddy, postemergence weed control; type: in vivo, L.; settings: postemergence weeds, rated 3-4 weeks after treatment
From the text: as §3, §4

SETVI (Setaria viridis) = test: Postemergence herbicidal evaluation; type: in vivo, (L.) Beau
Procedure, shortened: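 Seedlings grown about two weeks were sprayed with compound in 50/50 acetone/water containing 0.5% TWEEN 20, at about 0.0040 to 1.000 kg/ha via nozzle at 40 psi. Plants were kept under greenhouse conditions and visually rated on a 0-9 scale versus control four to five weeks after treatment; replicate tests averaged.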

[12] = test system: ECHORC (Echinochloa oryzoides); test: Flooded paddy, postemergence weed control; type: in vivo, Echinochloa oryzoides (Ard.) Fritsch.; settings: postemergence weeds, rated 3-4 weeks after treatment
From the text: as §3, §4

GALAP (Galium aparine) [13] = test: Postemergence herbicidal evaluation; type: in vivo
Procedure, shortened: as §2

CCc1cc(-c2nsc3ccc(-n4c(=O)cc(C(F)(F)F)n(C)c4=O)cc23)c(CC)s1 [Compound 8, 3-[3-(2,5-diethyl-3-thienyl)-1,2-benzisothiazol-5-yl]-1-methyl-6-(trifluoromethyl)uracil]
1.0: herbicide rating (0-9) ORYSAT (rice tolerance) (ORYSAT (Rice, Tebonnet) [10]; 0.0320 kg/ha into flood water) | herbicide rating (0-9) SAGPY ([11]; 0.1250 kg/ha into flood water)
9.0: GALAP preemergence herbicidal rating (GALAP (Galium aparine) [1]; Rate 0.2500 kg/ha) | herbicidal rating, ECHORC ([2]; rate 0.0320 kg/ha) | herbicidal rating, ECHORC ([2]; rate 0.1250 kg/ha)
2.0: herbicidal rating, ECHORC ([2]; rate 0.0080 kg/ha) | Postemergence herbicidal rating, ECHCG ([8]; rate 0.0320 kg/ha) | Postemergence herbicidal rating, ECHCG ([8]; rate 0.0620 kg/ha) | herbicide rating (0-9) ORYSAT (rice tolerance) (ORYSAT (Rice, Tebonnet) [10]; 0.0620 kg/ha into flood water) | herbicide rating (0-9) ORYSAT (rice tolerance) (ORYSAT (Rice, Tebonnet) [10]; 0.1250 kg/ha into flood water)
6.0: Postemergence herbicidal rating, GALAP (GALAP (Galium aparine) [13]; rate 0.0620 kg/ha)
4.5: herbicidal rating, CYPSE ([6]; rate 0.1250 kg/ha) | herbicide rating (0-9) MOOVA ([9]; 0.0320 kg/ha into flood water) | herbicide rating (0-9) MOOVA ([9]; 0.0620 kg/ha into flood water)
0.0: GALAP preemergence herbicidal rating (GALAP (Galium aparine) [1]; Rate 0.0620 kg/ha) | GALAP preemergence herbicidal rating (GALAP (Galium aparine) [1]; Rate 0.1250 kg/ha) | herbicidal rating, SAGPY ([3]; rate 0.0080 kg/ha) | herbicidal rating, SAGPY ([3]; rate 0.0320 kg/ha) | herbicidal rating, SAGPY ([3]; rate 0.1250 kg/ha) | herbicide rating (0-9) CYPSE ([4]; 0.0320 kg/ha into flood water) | herbicide rating (0-9) CYPSE ([4]; 0.0620 kg/ha into flood water) | herbicide rating (0-9) CYPSE ([4]; 0.1250 kg/ha into flood water) | ORYSAT preemergence herbicidal rating (ORYSAT (Rice, Tebonnet) [7]; Rate 0.0620 kg/ha) | ORYSAT preemergence herbicidal rating (ORYSAT (Rice, Tebonnet) [7]; Rate 0.1250 kg/ha) | ORYSAT preemergence herbicidal rating (ORYSAT (Rice, Tebonnet) [7]; Rate 0.2500 kg/ha) | herbicide rating (0-9) SAGPY ([11]; 0.0320 kg/ha into flood water) | herbicide rating (0-9) SAGPY ([11]; 0.0620 kg/ha into flood water)
5.5: herbicide rating (0-9) MOOVA ([9]; 0.1250 kg/ha into flood water)
3.0: Postemergence herbicidal rating, SETVI (SETVI (Setaria viridis); rate 0.0320 kg/ha) | Postemergence herbicidal rating, GALAP (GALAP (Galium aparine) [13]; rate 0.0320 kg/ha)
3.5: herbicide rating (0-9) ECHORC ([12]; 0.0320 kg/ha into flood water)
5.0: Postemergence herbicidal rating, ZEAMX (ZEAMX (Corn, Field); rate 0.0320 kg/ha) | Postemergence herbicidal rating, ZEAMX (ZEAMX (Corn, Field); rate 0.0620 kg/ha) | Postemergence herbicidal rating, TRZAWR ([5]; rate 0.0620 kg/ha) | herbicide rating (0-9) ECHORC ([12]; 0.1250 kg/ha into flood water)
4.0: Postemergence herbicidal rating, TRZAWR ([5]; rate 0.0320 kg/ha) | Postemergence herbicidal rating, SETVI (SETVI (Setaria viridis); rate 0.0620 kg/ha) | herbicide rating (0-9) ECHORC ([12]; 0.0620 kg/ha into flood water)

Cn1c(C(F)(F)F)cc(=O)n(-c2ccc3snc(-c4ccsc4)c3c2)c1=O [Compound 1, 1-methyl-3-[3-(3-thienyl)-1,2-benzisothiazol-5-yl]-6-(trifluoromethyl)uracil]
6.0: herbicidal rating, ECHORC ([2]; rate 0.0080 kg/ha) | Postemergence herbicidal rating, ZEAMX (ZEAMX (Corn, Field); rate 0.1250 kg/ha)
6.5: GALAP preemergence herbicidal rating (GALAP (Galium aparine) [1]; Rate 0.2500 kg/ha) | ORYSAT preemergence herbicidal rating (ORYSAT (Rice, Tebonnet) [7]; Rate 0.2500 kg/ha) | Postemergence herbicidal rating, SETVI (SETVI (Setaria viridis); rate 0.0620 kg/ha) | Postemergence herbicidal rating, GALAP (GALAP (Galium aparine) [13]; rate 0.0620 kg/ha)
2.5: Postemergence herbicidal rating, ECHCG ([8]; rate 0.0620 kg/ha)
8.0: Postemergence herbicidal rating, SETVI (SETVI (Setaria viridis); rate 0.1250 kg/ha)
4.3: Postemergence herbicidal rating, TRZAWR ([5]; rate 0.1250 kg/ha)
7.5: Postemergence herbicidal rating, GALAP (GALAP (Galium aparine) [13]; rate 0.1250 kg/ha)
5.8: Postemergence herbicidal rating, ZEAMX (ZEAMX (Corn, Field); rate 0.0620 kg/ha)
7.0: GALAP preemergence herbicidal rating (GALAP (Galium aparine) [1]; Rate 0.1250 kg/ha) | herbicide rating (0-9) CYPSE ([4]; 0.1250 kg/ha into flood water) | herbicide rating (0-9) ORYSAT (rice tolerance) (ORYSAT (Rice, Tebonnet) [10]; 0.0320 kg/ha into flood water) | herbicide rating (0-9) ORYSAT (rice tolerance) (ORYSAT (Rice, Tebonnet) [10]; 0.0620 kg/ha into flood water) | herbicide rating (0-9) ORYSAT (rice tolerance) (ORYSAT (Rice, Tebonnet) [10]; 0.1250 kg/ha into flood water) | herbicide rating (0-9) SAGPY ([11]; 0.0620 kg/ha into flood water) | Postemergence herbicidal rating, SETVI (SETVI (Setaria viridis); rate 0.0320 kg/ha)
2.0: herbicide rating (0-9) CYPSE ([4]; 0.0320 kg/ha into flood water) | Postemergence herbicidal rating, ECHCG ([8]; rate 0.0320 kg/ha)
3.5: Postemergence herbicidal rating, TRZAWR ([5]; rate 0.0320 kg/ha) | Postemergence herbicidal rating, TRZAWR ([5]; rate 0.0620 kg/ha) | herbicidal rating, CYPSE ([6]; rate 0.0320 kg/ha)
4.0: herbicidal rating, SAGPY ([3]; rate 0.0080 kg/ha) | herbicidal rating, SAGPY ([3]; rate 0.0320 kg/ha) | herbicide rating (0-9) CYPSE ([4]; 0.0620 kg/ha into flood water) | Postemergence herbicidal rating, ECHCG ([8]; rate 0.1250 kg/ha) | herbicide rating (0-9) SAGPY ([11]; 0.0320 kg/ha into flood water)
5.0: ORYSAT preemergence herbicidal rating (ORYSAT (Rice, Tebonnet) [7]; Rate 0.0620 kg/ha) | ORYSAT preemergence herbicidal rating (ORYSAT (Rice, Tebonnet) [7]; Rate 0.1250 kg/ha) | Postemergence herbicidal rating, GALAP (GALAP (Galium aparine) [13]; rate 0.0320 kg/ha)
9.0: GALAP preemergence herbicidal rating (GALAP (Galium aparine) [1]; Rate 0.0620 kg/ha) | herbicidal rating, ECHORC ([2]; rate 0.0320 kg/ha) | herbicidal rating, ECHORC ([2]; rate 0.1250 kg/ha) | herbicidal rating, CYPSE ([6]; rate 0.1250 kg/ha) | herbicide rating (0-9) MOOVA ([9]; 0.0320 kg/ha into flood water) | herbicide rating (0-9) MOOVA ([9]; 0.0620 kg/ha into flood water) | herbicide rating (0-9) MOOVA ([9]; 0.1250 kg/ha into flood water) | herbicide rating (0-9) SAGPY ([11]; 0.1250 kg/ha into flood water) | herbicide rating (0-9) ECHORC ([12]; 0.0320 kg/ha into flood water) | herbicide rating (0-9) ECHORC ([12]; 0.0620 kg/ha into flood water) | herbicide rating (0-9) ECHORC ([12]; 0.1250 kg/ha into flood water)
5.5: Postemergence herbicidal rating, ZEAMX (ZEAMX (Corn, Field); rate 0.0320 kg/ha) | herbicidal rating, SAGPY ([3]; rate 0.1250 kg/ha)
